Results from patent publication US20100298141A1, “SUBSTITUTED PYRIDINE N-OXIDE HERBICIDES” (E. I. DU PONT DE NEMOURS AND COMPANY, priority 2007, published 2010).

Key:
Assay in all cases: Test F preemergence test
Details in all cases: scale 0 to 100
Italian ryegrass = format: in vivo, Lolium multiflorum
In short: (§1)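 Compound in a non-phytotoxic solvent blend with surfactant is applied preemergence to planted seeds or postemergence to sugarcane plants. Plants and controls stay in the greenhouse 14 to 21 days before visual comparison.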

Surinam grass = format: in vivo, Brachiaria decumbens
In short: as §1

guineagrass = format: in vivo, Panicum maximum
In short: as §1

pitted morningglory = format: in vivo, Ipomoea lacunosa
In short: as §1

prickly sida = format: in vivo, Sida spinosa
In short: as §1

purple nutsedge = format: in vivo, Cyperus rotundus
In short: as §1

johnsongrass = format: in vivo, Sorghum halepense
In short: as §1

bermudagrass = format: in vivo, Cynodon dactylon
In short: as §1

field bindweed = format: in vivo, Convolvulus arvensis
In short: as §1

common purslane = format: in vivo, Portulaca oleracea
In short: as §1

goosegrass = format: in vivo, Eleusine indica
In short: as §1

itchgrass = format: in vivo, Rottboellia cochinchinensis
In short: as §1

common ragweed = format: in vivo, Ambrosia elation
In short: as §1

southern sandbur = format: in vivo, Cenchrus echinatus
In short: as §1

broadleaf signalgrass = format: in vivo, Brachiaria platyphylla
In short: as §1

naked crabgrass = format: in vivo, Digitaria nuda
In short: as §1

In the case of `CC(c1c(C(F)(F)F)nn(C)c1OC(F)F)S(=O)(=O)c1cccc[n+]1[O-]` (centres unmarked) [Compound 5], the “Plant response rating, Ryegrass, Italian” value (Italian ryegrass; 8 g ai/ha, preemergence) is reported as 10, the “Ryegrass, Italian plant response rating” value (Italian ryegrass; 62 g ai/ha, Preemergence) is reported as 75 and the “Plant response rating, Ryegrass, Italian” value (Italian ryegrass; Preemergence, 16 g ai/ha) is reported as 40. The “Plant response rating, Ryegrass, Italian” value (Italian ryegrass; Preemergence, 31 g ai/ha) was 60, the “Plant response rating, Surinam Grass” value (Surinam grass; 8 g ai/ha, preemergence) was 0 and the “Plant response rating, Surinam Grass” value (Surinam grass; 16 g ai/ha, preemergence) was 80. For the same compound, the “Surinam Grass plant response rating” value (Surinam grass; 62 g ai/ha, Preemergence) was 100, the “Plant response rating, Surinam Grass” value (Surinam grass; Preemergence, 31 g ai/ha) was 90 and the “Plant response rating, Guineagrass” value (guineagrass; 8 g ai/ha, preemergence) was 20. The “Guineagrass plant response rating” value (guineagrass; 62 g ai/ha, Preemergence) was 100, the “Plant response rating, Guineagrass” value (guineagrass; Preemergence, 16 g ai/ha) was 100 and the “Plant response rating, Guineagrass” value (guineagrass; Preemergence, 31 g ai/ha) was 100. The “Plant response rating, Morningglory” value (pitted morningglory; 8 g ai/ha, preemergence) was 0, the “Morningglory plant response rating” value (pitted morningglory; 62 g ai/ha, Preemergence) was 80 and the “Plant response rating, Morningglory” value (pitted morningglory; Preemergence, 16 g ai/ha) was 50. The “Plant response rating, Morningglory” value (pitted morningglory; Preemergence, 31 g ai/ha) was 50, the “Plant response rating, Prickly Sida” value (prickly sida; 8 g ai/ha, preemergence) was 0 and the “Prickly Sida plant response rating” value (prickly sida; 62 g ai/ha, Preemergence) was 100. For the same compound, the “Plant response rating, Prickly Sida” value (prickly sida; Preemergence, 16 g ai/ha) was 50, the “Plant response rating, Prickly Sida” value (prickly sida; Preemergence, 31 g ai/ha) was 100 and the “Plant response rating, Purple Nutsedge” value (purple nutsedge; 8 g ai/ha, preemergence) was 30. For the same compound, the “Purple Nutsedge plant response rating” value (purple nutsedge; 62 g ai/ha, Preemergence) was 90, the “Plant response rating, Purple Nutsedge” value (purple nutsedge; Preemergence, 16 g ai/ha) was 60 and the “Plant response rating, Purple Nutsedge” value (purple nutsedge; Preemergence, 31 g ai/ha) was 75. For the same compound, the “Plant response rating, Johnsongrass” value (johnsongrass; 8 g ai/ha, preemergence) was 25, the “Johnsongrass plant response rating” value (johnsongrass; 62 g ai/ha, Preemergence) was 100 and the “Plant response rating, Johnsongrass” value (johnsongrass; Preemergence, 16 g ai/ha) was 50. The “Plant response rating, Johnsongrass” value (johnsongrass; Preemergence, 31 g ai/ha) was 100, the “Plant response rating, Bermudagrass” value (bermudagrass; 8 g ai/ha, preemergence) was 25 and the “Bermudagrass plant response rating” value (bermudagrass; 62 g ai/ha, Preemergence) was 100. The “Plant response rating, Bermudagrass” value (bermudagrass; Preemergence, 16 g ai/ha) was 50, the “Plant response rating, Bermudagrass” value (bermudagrass; Preemergence, 31 g ai/ha) was 100 and the “Plant response rating, Field Bindweed” value (field bindweed; 8 g ai/ha, preemergence) was 0. For the same compound, the “Field Bindweed plant response rating” value (field bindweed; 62 g ai/ha, Preemergence) was 0, the “Plant response rating, Field Bindweed” value (field bindweed; Preemergence, 16 g ai/ha) was 0 and the “Plant response rating, Field Bindweed” value (field bindweed; Preemergence, 31 g ai/ha) was 0. For the same compound, the “Plant response rating, Purslane” value (common purslane; 8 g ai/ha, preemergence) was 0, the “Purslane plant response rating” value (common purslane; 62 g ai/ha, Preemergence) was 65 and the “Plant response rating, Purslane” value (common purslane; Preemergence, 16 g ai/ha) was 35. For the same compound, the “Plant response rating, Purslane” value (common purslane; Preemergence, 31 g ai/ha) was 50, the “Plant response rating, Goosegrass” value (goosegrass; 8 g ai/ha, preemergence) was 10 and the “Goosegrass plant response rating” value (goosegrass; 62 g ai/ha, Preemergence) was 100. The “Plant response rating, Goosegrass” value (goosegrass; Preemergence, 16 g ai/ha) was 85, the “Plant response rating, Goosegrass” value (goosegrass; Preemergence, 31 g ai/ha) was 90 and the “Plant response rating, Itchgrass” value (itchgrass; 8 g ai/ha, preemergence) was 10. The “Itchgrass plant response rating” value (itchgrass; 62 g ai/ha, Preemergence) was 90, the “Plant response rating, Itchgrass” value (itchgrass; Preemergence, 16 g ai/ha) was 25 and the “Plant response rating, Itchgrass” value (itchgrass; Preemergence, 31 g ai/ha) was 35. For the same compound, the “Plant response rating, Ragweed” value (common ragweed; 8 g ai/ha, preemergence) was 50, the “Ragweed plant response rating” value (common ragweed; 62 g ai/ha, Preemergence) was 100 and the “Plant response rating, Ragweed” value (common ragweed; Preemergence, 16 g ai/ha) was 65. For the same compound, the “Plant response rating, Ragweed” value (common ragweed; Preemergence, 31 g ai/ha) was 75, the “Plant response rating, Sandbur” value (southern sandbur; 8 g ai/ha, preemergence) was 15 and the “Plant response rating, Sandbur” value (southern sandbur; 16 g ai/ha, preemergence) was 75. For the same compound, the “Sandbur plant response rating” value (southern sandbur; 62 g ai/ha, Preemergence) was 100, the “Plant response rating, Sandbur” value (southern sandbur; Preemergence, 31 g ai/ha) was 100 and the “Plant response rating, Signalgrass” value (broadleaf signalgrass; 8 g ai/ha, preemergence) was 0. For the same compound, the “Plant response rating, Signalgrass” value (broadleaf signalgrass; 16 g ai/ha, preemergence) was 30, the “Signalgrass plant response rating” value (broadleaf signalgrass; 62 g ai/ha, Preemergence) was 75 and the “Plant response rating, Signalgrass” value (broadleaf signalgrass; Preemergence, 31 g ai/ha) was 35. For the same compound, the “Plant response rating, Crabgrass, Naked” value (naked crabgrass; 8 g ai/ha, preemergence) was 60, the “Crabgrass, Naked plant response rating” value (naked crabgrass; 62 g ai/ha, Preemergence) was 100 and the “Plant response rating, Crabgrass, Naked” value (naked crabgrass; Preemergence, 16 g ai/ha) was 95. For the same compound, the “Plant response rating, Crabgrass, Naked” value (naked crabgrass; Preemergence, 31 g ai/ha) was 100.
In the case of `Cn1nc(C(F)(F)F)c(C[S+]([O-])c2cccc[n+]2[O-])c1Cl` (centres unmarked) [Compound 8], the “Ryegrass, Italian plant response rating” value (Italian ryegrass; 62 g ai/ha, Preemergence) is reported as 75, the “Ryegrass, Italian plant response rating” value (Italian ryegrass; 125 g ai/ha, preemergence) is reported as 100 and the “Plant response rating, Ryegrass, Italian” value (Italian ryegrass; Preemergence, 16 g ai/ha) is reported as 0. The “Plant response rating, Ryegrass, Italian” value (Italian ryegrass; Preemergence, 31 g ai/ha) was 40, the “Surinam Grass plant response rating” value (Surinam grass; 62 g ai/ha, Preemergence) was 90 and the “Surinam Grass plant response rating” value (Surinam grass; 125 g ai/ha, preemergence) was 100. The “Plant response rating, Surinam Grass” value (Surinam grass; Preemergence, 31 g ai/ha) was 70, the “Guineagrass plant response rating” value (guineagrass; 62 g ai/ha, Preemergence) was 98 and the “Guineagrass plant response rating” value (guineagrass; 125 g ai/ha, preemergence) was 100. The “Plant response rating, Guineagrass” value (guineagrass; Preemergence, 16 g ai/ha) was 35, the “Plant response rating, Guineagrass” value (guineagrass; Preemergence, 31 g ai/ha) was 60 and the “Morningglory plant response rating” value (pitted morningglory; 62 g ai/ha, Preemergence) was 0. For the same compound, the “Morningglory plant response rating” value (pitted morningglory; 125 g ai/ha, preemergence) was 35, the “Plant response rating, Morningglory” value (pitted morningglory; Preemergence, 16 g ai/ha) was 0 and the “Plant response rating, Morningglory” value (pitted morningglory; Preemergence, 31 g ai/ha) was 0. The “Prickly Sida plant response rating” value (prickly sida; 62 g ai/ha, Preemergence) was 70, the “Prickly Sida plant response rating” value (prickly sida; 125 g ai/ha, preemergence) was 90 and the “Plant response rating, Prickly Sida” value (prickly sida; Preemergence, 16 g ai/ha) was 20. The “Plant response rating, Prickly Sida” value (prickly sida; Preemergence, 31 g ai/ha) was 20, the “Purple Nutsedge plant response rating” value (purple nutsedge; 62 g ai/ha, Preemergence) was 50 and the “Purple Nutsedge plant response rating” value (purple nutsedge; 125 g ai/ha, preemergence) was 65. The “Plant response rating, Purple Nutsedge” value (purple nutsedge; Preemergence, 16 g ai/ha) was 0, the “Plant response rating, Purple Nutsedge” value (purple nutsedge; Preemergence, 31 g ai/ha) was 0 and the “Johnsongrass plant response rating” value (johnsongrass; 62 g ai/ha, Preemergence) was 95. For the same compound, the “Johnsongrass plant response rating” value (johnsongrass; 125 g ai/ha, preemergence) was 95, the “Plant response rating, Johnsongrass” value (johnsongrass; Preemergence, 16 g ai/ha) was 0 and the “Plant response rating, Johnsongrass” value (johnsongrass; Preemergence, 31 g ai/ha) was 75. For the same compound, the “Bermudagrass plant response rating” value (bermudagrass; 62 g ai/ha, Preemergence) was 75, the “Bermudagrass plant response rating” value (bermudagrass; 125 g ai/ha, preemergence) was 90 and the “Plant response rating, Bermudagrass” value (bermudagrass; Preemergence, 16 g ai/ha) was 0. The “Plant response rating, Bermudagrass” value (bermudagrass; Preemergence, 31 g ai/ha) was 15, the “Field Bindweed plant response rating” value (field bindweed; 62 g ai/ha, Preemergence) was 15 and the “Field Bindweed plant response rating” value (field bindweed; 125 g ai/ha, preemergence) was 70. For the same compound, the “Plant response rating, Field Bindweed” value (field bindweed; Preemergence, 16 g ai/ha) was 0, the “Plant response rating, Field Bindweed” value (field bindweed; Preemergence, 31 g ai/ha) was 0 and the “Purslane plant response rating” value (common purslane; 62 g ai/ha, Preemergence) was 15. The “Purslane plant response rating” value (common purslane; 125 g ai/ha, preemergence) was 20, the “Plant response rating, Purslane” value (common purslane; Preemergence, 16 g ai/ha) was 0 and the “Plant response rating, Purslane” value (common purslane; Preemergence, 31 g ai/ha) was 0. The “Goosegrass plant response rating” value (goosegrass; 62 g ai/ha, Preemergence) was 80, the “Goosegrass plant response rating” value (goosegrass; 125 g ai/ha, preemergence) was 100 and the “Plant response rating, Goosegrass” value (goosegrass; Preemergence, 16 g ai/ha) was 0. For the same compound, the “Plant response rating, Goosegrass” value (goosegrass; Preemergence, 31 g ai/ha) was 70, the “Itchgrass plant response rating” value (itchgrass; 62 g ai/ha, Preemergence) was 80 and the “Itchgrass plant response rating” value (itchgrass; 125 g ai/ha, preemergence) was 95. For the same compound, the “Plant response rating, Itchgrass” value (itchgrass; Preemergence, 16 g ai/ha) was 0, the “Plant response rating, Itchgrass” value (itchgrass; Preemergence, 31 g ai/ha) was 15 and the “Ragweed plant response rating” value (common ragweed; 62 g ai/ha, Preemergence) was 35. For the same compound, the “Ragweed plant response rating” value (common ragweed; 125 g ai/ha, preemergence) was 80, the “Plant response rating, Ragweed” value (common ragweed; Preemergence, 16 g ai/ha) was 0 and the “Plant response rating, Ragweed” value (common ragweed; Preemergence, 31 g ai/ha) was 35. The “Sandbur plant response rating” value (southern sandbur; 62 g ai/ha, Preemergence) was 80, the “Sandbur plant response rating” value (southern sandbur; 125 g ai/ha, preemergence) was 100 and the “Plant response rating, Sandbur” value (southern sandbur; Preemergence, 31 g ai/ha) was 10. The “Signalgrass plant response rating” value (broadleaf signalgrass; 62 g ai/ha, Preemergence) was 75, the “Signalgrass plant response rating” value (broadleaf signalgrass; 125 g ai/ha, preemergence) was 85 and the “Plant response rating, Signalgrass” value (broadleaf signalgrass; Preemergence, 31 g ai/ha) was 65. For the same compound, the “Crabgrass, Naked plant response rating” value (naked crabgrass; 62 g ai/ha, Preemergence) was 90, the “Crabgrass, Naked plant response rating” value (naked crabgrass; 125 g ai/ha, preemergence) was 100 and the “Plant response rating, Crabgrass, Naked” value (naked crabgrass; Preemergence, 16 g ai/ha) was 60. The “Plant response rating, Crabgrass, Naked” value (naked crabgrass; Preemergence, 31 g ai/ha) was 75.
